According to patent US20210358575A1, “A METHOD FOR DETERMINING THE EFFICACY OF TREATMENT WITH A COMBINATION OF DRUGS IN A SUBJECT DIAGNOSED WITH A DISEASE AND A METHOD FOR CLASSIFYING THE UTILITY OF DRUG COMBINATIONS IN TREATMENT OF SAID SUBJECT” (priority 2018, published 2021):
Each block holds one compound with its values, some of them ahead of it.

Key:
[1] = tested on: live pathological cells (LPC) in bone marrow samples of AML patients; experiment: PharmaFlow PM test: ex vivo drug sensitivity of whole bone marrow samples, population pharmacodynamic models; format: cell-based, human; details: typical population value
Experimental: Ex vivo drug sensitivity analysis was made using the PharmaFlow platform (previously termed ExviTech®) maintaining the bone marrow (BM) microenvironment. A minimum BM sample volume between one and two mL was collected by aspiration at AML diagnosis, before starting induction chemotherapy, and was processed by an automated method 24 hours after extraction. Samples were incubated with CYT, IDA and/or CYT+IDA for 48 hours. A more detailed description of the procedure has been published elsewhere (Bennett, et al 2014).
Evaluation of drug response was done by counting the number of live pathological cells (LPC) remaining after incubation at increasing drug concentrations (Upton and Mould 2014). Dying cells (apoptosis) were excluded using Annexin V-FITC. Pharmacological responses were analyzed using PD population-based models (Upton and Mould 2014) which essentially perform the fitting of the dependent variable (natural log of LPC) in a non-linear mixed-effects model to derive typical population values (fixed effects) and the magnitude of inter-patient and residual variability (random effects).
Model development was performed with the first-order conditional estimation method using interaction option with the software NONMEM (v7.2) (Beal, et al 1989-2001), according to the following equation: […]
Where LPC0 (LCTi0) parameter refers to the number of LPC (LCTi) after incubation in the absence of drug, Emax represents the maximum fractional decrease in LPC that the drug can elicit, EC50, is the drug concentration exerting half of Emax, and γ is the parameter governing the steepness of the LPC vs drug concentration (C) curve. For interaction analysis a Surface Interaction model (Greco, et al 1995) was used to estimate the degree of synergy, referred as a parameter, between both drugs. Interpatient variability (IPV) associated to all parameters was described by means of an exponential model of the components of variance. An additive error structure was used for the residual variability. Population PD models were built with bone marrow (BM) samples from 473 patients that were incubated with CYT, 456 with IDA and 443 with CYT+IDA. Bayesian estimation methods were then used to retrieve individual patient parameters based on their available exposure-response measurements in conjunction with the PD population parameters.
Individual response profiles normalized with respect to LPC0 (LCTi0), were integrated between the concentration points corresponding to the 20th and 80th percentiles of the distribution of estimated individual EC50 values, to obtain the values of the areas under the curves (AUCs) that were used as a descriptor of the ex vivo drug effect (i.e. the higher the AUC, the lower the cytotoxic effect (efficacy or potency) of the drug.

[2] = tested on: first-line AML patients treated with CYT+IDA; experiment: Validation of PM Test score vs clinical response in 112 first-line AML samples; format: in vivo, human; details: 112 AML patients treated with CYT+IDA
Text: The Precision Medicine (PM) Test as described ranks treatments by a score that estimates the activity of each treatment across a population of patient samples. Higher score represents more ex vivo sensitivity to treatment, while lower score represents less ex vivo sensitivity to treatment, i.e. more ex vivo resistance. A particular format of the results of the PM Test is shown in FIG. 19, panels A and B, wherein the ranking of treatments by activity score from 100%=best to 0%=worst is shown (score may be represented graphically using a colour/tone gradient or categorisation). The following 3 categories are identified:
To validate the predictive power of these PM Test score results, the set of 123 samples treated homogeneously with CYT+IDA that were used in the correlation study of Example 1 were employed. Only 112 samples were used for validation. To evaluate the predictive power of the PM Test score, in the format shown in FIG. 19, panel A referring to a sensitive patient we can only use patients predicted to be sensitive or resistant. Treatments having intermediate scores are not considered sufficiently strong to predict any response. In the case of intermediate scores, other factors such as pharmacokinetics may be more important than the score. On the other hand, extreme scores are more likely to prevail over other factors such as pharmacokinetics.
The set of data of 112 patients treated with CYT+IDA represents a 1st line treatment of AML with a 72% response rate. This means that 72% of these 112 patients achieved Complete Remission (CR) clinically. The majority of patients were sensitive, with fewer resistant patients. Thus, the statistics are improved by calculating the % of cases in which the PM Test score predicted patients to be sensitive to the ex vivo treatment. This means selecting only the treatments to which the patient is expected to be very sensitive, with scores between 80-100%. The % of accurate prediction of sensitive (responsive) patients is referred as the Negative Predicted Value (NPV).
Samples whose score are between this variable threshold and 100% are analysed and predicted as sensitive because they have the top score. The results are shown for the monotherapies CYT and IDA, and for the combination treatment. Focus was placed on the combination treatment CYT+IDA that was administered to patients. Columns 8 to 10 of Table 4 show the results for the combined treatment CYT+IDA for different thresholds. The lowest threshold 55%, which means between 55 and 100%, identifies 93 out of the 112 samples, that would be predicted as sensitive. […] Thus, the prediction accuracy or NPV is 77/93=82.8%. As the threshold is increased (descending the 1st column of Table 4), the range of scores included is narrowed because the maximum is always 100%. Consequently, as the threshold is increased, the total number of samples included diminishes, reaching 0 samples at 100% (100-100%) and 18 samples at 95%. The decrease can be observed in the number of either sensitive or resistant samples (descending columns 8 and 9 of Table 4). […] Thus, the higher the score, the better the prediction (moreover, the intermediate sensitivity values provide less accurate prediction than the extreme values).

[3] = tested on: bone marrow samples of acute lymphoid leukemia (ALL) patients; experiment: Ex vivo test of single drugs, EC50 compared with population distribution, acute lymphoid leukemia samples; format: cell-based, human
Experimental: (§1) Bone marrow samples were obtained from three adult patients diagnosed with MM (VIVIA-PMMM010431, VIVIA-PMMM060111 and VIVIA-PMMM130061) and three adult patients diagnosed with ALL (VIVIA-PMALL07002, VIVIA-PMALL04001 and VIVIA-PMALL09001). Following the same experimental design as described for examples 1 and 3, said bone marrow samples were incubated for 48 h in well plates containing the single drugs shown in FIGS. 21 to 26. After the measurement of pathological populations by flow cytometry, pharmacological response parameters were estimated using population pharmacodynamic models. The most representative parameter of drug potency, the EC50, was used for a comparative analysis of the results provided by said bone marrow samples with respect to the statistical distribution of the same parameter observed in a population of samples and stored in the database. Such populations varied in size depending on the drug, being always over one hundred individuals in the case of MM and between 15 and 21 individuals in the case of ALL.

[4] = tested on: bone marrow samples of multiple myeloma (MM) patients; experiment: Ex vivo test of single drugs, EC50 compared with population distribution, multiple myeloma samples; format: cell-based, human
Experimental: as §1

[5] = ALL second line patient VIVIA-PMALL04001, 48 h
[6] = MM patient VIVIA-PMMM010431, 48 h
[7] = MM patient VIVIA-PMMM130061, 48 h
[8] = MM patient VIVIA-PMMM060111, 48 h
[9] = ALL patient VIVIA-PMALL07002, 48 h
[10] = ALL patient VIVIA-PMALL09001, 48 h

- EC50 ([1]; Homo sapiens, AML bone marrow samples, 48 h incubation): 6.94 µM
Compound: Nc1ccn([C@@H]2O[C@H](CO)[C@@H](O)[C@@H]2O)c(=O)n1 [Cytarabine, cytarabine]
- EMAX (maximum fractional decrease in LPC) ([1]; set to 1 in the model, 48 h): 1
- γ (steepness of LPC vs concentration curve) ([1]; 48 h): 0.684
- % Sens. (percentage of patients sensitive to therapy, NPV) ([2]; PM Test score ≥55): 84.8%
- Res. (number of patients resistant to therapy) ([2]; PM Test score ≥55): 14
- Sens. (number of patients sensitive to therapy) ([2]; PM Test score ≥55): 78
- % Sens. (percentage of patients sensitive to therapy, NPV) ([2]; PM Test score ≥60): 85.7%
- Res. (number of patients resistant to therapy) ([2]; PM Test score ≥60): 13
- Sens. (number of patients sensitive to therapy) ([2]; PM Test score ≥60): 78
- % Sens. (percentage of patients sensitive to therapy, NPV) ([2]; PM Test score ≥65): 85.4%
- Res. (number of patients resistant to therapy) ([2]; PM Test score ≥65): 13
- Sens. (number of patients sensitive to therapy) ([2]; PM Test score ≥65): 76
- % Sens. (percentage of patients sensitive to therapy, NPV) ([2]; PM Test score ≥70): 85.1%
- Res. (number of patients resistant to therapy) ([2]; PM Test score ≥70): 13
- Sens. (number of patients sensitive to therapy) ([2]; PM Test score ≥70): 74
- % Sens. (percentage of patients sensitive to therapy, NPV) ([2]; PM Test score ≥75): 86.1%
- Res. (number of patients resistant to therapy) ([2]; PM Test score ≥75): 11
- Sens. (number of patients sensitive to therapy) ([2]; PM Test score ≥75): 68
- % Sens. (percentage of patients sensitive to therapy, NPV) ([2]; PM Test score ≥80): 86.1%
- Res. (number of patients resistant to therapy) ([2]; PM Test score ≥80): 10
- Sens. (number of patients sensitive to therapy) ([2]; PM Test score ≥80): 62
- % Sens. (percentage of patients sensitive to therapy, NPV) ([2]; PM Test score ≥85): 87.1%
- Res. (number of patients resistant to therapy) ([2]; PM Test score ≥85): 8
- Sens. (number of patients sensitive to therapy) ([2]; PM Test score ≥85): 54
- % Sens. (percentage of patients sensitive to therapy, NPV) ([2]; PM Test score ≥90): 85.2%
- Res. (number of patients resistant to therapy) ([2]; PM Test score ≥90): 8
- Sens. (number of patients sensitive to therapy) ([2]; PM Test score ≥90): 46
- % Sens. (percentage of patients sensitive to therapy, NPV) ([2]; PM Test score ≥95): 83.7%
- Res. (number of patients resistant to therapy) ([2]; PM Test score ≥95): 7
- Sens. (number of patients sensitive to therapy) ([2]; PM Test score ≥95): 36
- Res. (number of patients resistant to therapy) ([2]; PM Test score ≥100): 0
- Sens. (number of patients sensitive to therapy) ([2]; PM Test score ≥100): 0
- ex vivo activity [3, 5]: intermediate-low activity

Compound: Cn1c(CCCC(=O)O)nc2cc(N(CCCl)CCCl)ccc21 [bendamustine]
- EC50 relative to population distribution [4, 6]: below the 10th percentile
- ex vivo activity [4, 6]: potent activity
- ex vivo activity [4, 7]: very weak activity

- EC50 relative to population distribution [4, 6]: below the first quartile
Compound: CC(C)C[C@H](NC(=O)[C@H](Cc1ccccc1)NC(=O)c1cnccn1)B(O)O [bortezomib]
- ex vivo activity [4, 6]: potent activity
- ex vivo activity [4, 8]: intermediate activity
- ex vivo activity [4, 7]: very weak activity

Compound: O=P1(N(CCCl)CCCl)NCCCO1 (stereo not shown) [cyclophosphamide]
- ex vivo activity [3, 9]: intermediate or high activity

Compound: COc1cccc2c1C(=O)c1c(O)c3c(c(O)c1C2=O)C[C@@](O)(C(C)=O)C[C@@H]3O[C@H]1C[C@H](N)[C@H](O)[C@H](C)O1 [daunorubicin]
- ex vivo activity [3, 9]: intermediate or high activity
- ex vivo activity [3, 10]: high activity
- ex vivo activity [3, 5]: low activity or resistance

Compound: C[C@@H]1C[C@H]2[C@@H]3CCC4=CC(=O)C=C[C@]4(C)[C@@]3(F)[C@@H](O)C[C@]2(C)[C@@]1(O)C(=O)CO [dexamethasone]
- ex vivo activity [4, 8]: no activity

Compound: O=C1c2c(O)ccc(O)c2C(=O)c2c(NCCNCCO)ccc(NCCNCCO)c21 [mitoxantrone]
- ex vivo activity [3, 5]: low activity or resistance

- EC50 relative to population distribution [4, 6]: below the 10th percentile
Compound: C[C@]12C=CC(=O)C=C1CC[C@@H]1[C@@H]2[C@@H](O)C[C@@]2(C)[C@H]1CC[C@]2(O)C(=O)CO [prednisolone]
- ex vivo activity [3, 9]: intermediate or high activity
- ex vivo activity [3, 10]: high activity
- ex vivo activity [4, 6]: potent activity

Compound: O=C1CCC(N2C(=O)c3ccccc3C2=O)C(=O)N1 (stereo not shown) [thalidomide]
- ex vivo activity [4, 7]: very weak activity

Compound: CC[C@]1(O)C[C@H]2CN(CCc3c([nH]c4ccccc34)[C@@](C(=O)OC)(c3cc4c(cc3OC)N(C=O)[C@H]3[C@@](O)(C(=O)OC)[C@H](OC(C)=O)[C@]5(CC)C=CCN6CC[C@]43[C@@H]65)C2)C1 [vincristine]
- ex vivo activity [3, 9]: intermediate or high activity
- ex vivo activity [3, 10]: high activity
- ex vivo activity [3, 5]: low activity or resistance

Compound: L-asparaginase
- ex vivo activity [3, 9]: intermediate or high activity
